Species on record: Rattus norvegicus
Assay: Open TG-GATES - Regimen: Daily Repeat
Format: toxicity, organism-based, Sprague-Dawley
Design: regimen Daily Repeat, gender Male, age 6 weeks
Settings: in vivo, po, 6 mg/kg, […], route gavage, dose level Low; for KIDNEY_L / KIDNEY_R / KIDNEY_TOTAL: tissue Kidney; for LIVER: tissue Liver; for A/G / ALP / ALT / AST / BUN / CRE / Ca / Cl / DBIL / GLC / IP / K / LDH / Na / PL / RALB / TBIL / TC / TG / TP / gamma-GTP: tissue Plasma

Work on `CC(C)NNC(=O)c1ccncc1` [IPRONIAZID] yielded a Lym (tissue Blood, time 28 day) of 78.8%, an MCH (tissue Blood, time 28 day) of 20 pg and an MCHC (tissue Blood, time 28 day) of 35.1%. The MCV (tissue Blood, time 28 day) was 56.8 fL, the Mono (tissue Blood, time 28 day) was 2% and the Neu (tissue Blood, time 28 day) was 17%. For the same compound, the PT (tissue Blood, time 28 day) was 15.8 s, the Plat (tissue Blood, time 28 day) was 111.4 x10_4/uL and the RBC (tissue Blood, time 28 day) was 687.6 x10_4/ul. It also gave a Ret (tissue Blood, time 28 day) of 4.7%, a WBC (tissue Blood, time 28 day) of 109.2 x10_2/uL and a KIDNEY_L (time 7 day) of 1 g. It also gave a KIDNEY_R (time 7 day) of 1 g, a KIDNEY_TOTAL (time 7 day) of 2.1 g and a KIDNEY_L (time 14 day) of 1.1 g. The KIDNEY_R (time 14 day) was 1.1 g, the KIDNEY_TOTAL (time 14 day) was 2.2 g and the KIDNEY_L (time 28 day) was 1.3 g. For the same compound, the KIDNEY_R (time 28 day) was 1.3 g, the KIDNEY_TOTAL (time 28 day) was 2.6 g and the LIVER (time 7 day) was 10.7 g. It also gave an LIVER (time 14 day) of 11.9 g, an LIVER (time 28 day) of 14.7 g and an A/G (time 7 day) of 1.2. The ALP (time 7 day) was 1548 IU/L, the ALT (time 7 day) was 39.8 IU/L and the AST (time 7 day) was 72.8 IU/L. The BUN (time 7 day) was 18 mg/dL, the CRE (time 7 day) was 0.2 mg/dL and the Ca (time 7 day) was 10.6 mg/dL. It also gave a Cl (time 7 day) of 107.6 meq/L, a DBIL (time 7 day) of 0 mg/dL and a GLC (time 7 day) of 189.4 mg/dL. It also gave an IP (time 7 day) of 6.5 mg/dL, a K (time 7 day) of 4.3 meq/L and an LDH (time 7 day) of 234.6 IU/L. For the same compound, the Na (time 7 day) was 141 meq/L, the PL (time 7 day) was 153.2 mg/dL and the RALB (time 7 day) was 3.1 g/dL. The TBIL (time 7 day) was 0.002 mg/dL, the TC (time 7 day) was 76.8 mg/dL and the TG (time 7 day) was 125.8 mg/dL. For the same compound, the TP (time 7 day) was 5.6 g/dL, the gamma-GTP (time 7 day) was 1.4 IU/L and the A/G (time 14 day) was 1.1. For the same compound, the ALP (time 14 day) was 1195.8 IU/L, the ALT (time 14 day) was 41 IU/L and the AST (time 14 day) was 69 IU/L. The BUN (time 14 day) was 18 mg/dL, the CRE (time 14 day) was 0.2 mg/dL and the Ca (time 14 day) was 10.5 mg/dL. It also gave a Cl (time 14 day) of 107.4 meq/L, a DBIL (time 14 day) of 0 mg/dL and a GLC (time 14 day) of 180 mg/dL. For the same compound, the IP (time 14 day) was 6.5 mg/dL, the K (time 14 day) was 4.3 meq/L and the LDH (time 14 day) was 160.8 IU/L. The Na (time 14 day) was 141.2 meq/L, the PL (time 14 day) was 161 mg/dL and the RALB (time 14 day) was 3 g/dL. The TBIL (time 14 day) was 0.004 mg/dL, the TC (time 14 day) was 80.6 mg/dL and the TG (time 14 day) was 148 mg/dL. It also gave a TP (time 14 day) of 5.7 g/dL, a gamma-GTP (time 14 day) of 2.2 IU/L and an A/G (time 28 day) of 1.1. For the same compound, the ALP (time 28 day) was 1033.6 IU/L, the ALT (time 28 day) was 42.6 IU/L and the AST (time 28 day) was 71.8 IU/L. It also gave a BUN (time 28 day) of 18 mg/dL, a CRE (time 28 day) of 0.2 mg/dL and a Ca (time 28 day) of 10.6 mg/dL. It also gave a Cl (time 28 day) of 106.6 meq/L, a DBIL (time 28 day) of 0 mg/dL and a GLC (time 28 day) of 191 mg/dL. The IP (time 28 day) was 6.2 mg/dL, the K (time 28 day) was 4.3 meq/L and the LDH (time 28 day) was 167.4 IU/L. For the same compound, the Na (time 28 day) was 142 meq/L, the PL (time 28 day) was 151.6 mg/dL and the RALB (time 28 day) was 3.2 g/dL. The TBIL (time 28 day) was 0.02 mg/dL, the TC (time 28 day) was 77.6 mg/dL and the TG (time 28 day) was 135.6 mg/dL. It also gave a TP (time 28 day) of 6 g/dL and a gamma-GTP (time 28 day) of 2 IU/L.

From ChEMBL document CHEMBL3885861, “Open TG-GATES”
